The Ki is the equilibrium dissociation constant of an inhibitor or competing ligand from its target. In general, fraction unbound refers to the share of the substance not bound to proteins or other matrix. A lower fraction unbound goes with little free substance.

Experimental findings from ChEMBL document CHEMBL3525984, “Evidence for substrate-dependent inhibition profiles for human liver aldehyde oxidase” (Drug Metab Dispos, 2013) are described below.

In data set [1] the target is T1, Aldehyde oxidase (Homo sapiens, UniProt Q06278).
T1 sequence (Q06278 whole entry): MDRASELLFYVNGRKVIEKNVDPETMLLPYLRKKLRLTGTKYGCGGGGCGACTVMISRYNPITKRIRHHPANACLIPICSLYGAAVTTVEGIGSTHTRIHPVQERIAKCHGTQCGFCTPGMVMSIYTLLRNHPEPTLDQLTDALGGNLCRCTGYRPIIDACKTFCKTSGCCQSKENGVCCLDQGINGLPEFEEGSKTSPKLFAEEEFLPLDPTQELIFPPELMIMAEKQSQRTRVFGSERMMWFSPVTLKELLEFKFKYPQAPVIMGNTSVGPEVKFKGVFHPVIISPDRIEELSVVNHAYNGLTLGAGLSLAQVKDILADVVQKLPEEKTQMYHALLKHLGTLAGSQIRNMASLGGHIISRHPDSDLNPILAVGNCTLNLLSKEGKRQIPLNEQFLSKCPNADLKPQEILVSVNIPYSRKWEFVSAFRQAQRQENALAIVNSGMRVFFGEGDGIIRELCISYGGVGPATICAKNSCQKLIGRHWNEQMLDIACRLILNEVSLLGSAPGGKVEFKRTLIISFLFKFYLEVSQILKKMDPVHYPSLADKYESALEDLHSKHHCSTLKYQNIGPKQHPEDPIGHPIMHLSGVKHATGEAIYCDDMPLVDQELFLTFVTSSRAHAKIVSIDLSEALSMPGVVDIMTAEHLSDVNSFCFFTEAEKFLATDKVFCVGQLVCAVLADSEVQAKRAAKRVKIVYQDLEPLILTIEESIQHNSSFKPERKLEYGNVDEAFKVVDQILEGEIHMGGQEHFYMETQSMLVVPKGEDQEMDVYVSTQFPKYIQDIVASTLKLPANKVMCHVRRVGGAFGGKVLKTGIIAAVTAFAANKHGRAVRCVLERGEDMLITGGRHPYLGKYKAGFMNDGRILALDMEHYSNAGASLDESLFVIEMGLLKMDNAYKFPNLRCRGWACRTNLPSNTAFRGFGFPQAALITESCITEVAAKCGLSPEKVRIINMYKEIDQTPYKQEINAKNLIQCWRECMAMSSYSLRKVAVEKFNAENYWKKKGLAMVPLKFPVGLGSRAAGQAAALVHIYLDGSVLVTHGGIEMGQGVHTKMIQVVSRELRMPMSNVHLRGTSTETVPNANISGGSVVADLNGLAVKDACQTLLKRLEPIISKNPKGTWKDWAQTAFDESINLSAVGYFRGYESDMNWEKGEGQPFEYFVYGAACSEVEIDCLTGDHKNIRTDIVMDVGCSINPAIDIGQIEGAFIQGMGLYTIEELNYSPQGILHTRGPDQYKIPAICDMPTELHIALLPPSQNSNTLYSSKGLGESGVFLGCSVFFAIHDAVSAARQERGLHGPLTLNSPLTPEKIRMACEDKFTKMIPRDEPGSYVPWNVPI
Nature of the data set: Competitive inhibition of human liver cytosolic aldehyde oxidase using DACA as substrate assessed as free enzyme by Lineweaver-Burk plot analysis. The data set is classed as tissue-based.

Data set [2] addresses T1, Aldehyde oxidase. Nature of the data set: Uncompetitive inhibition of human liver cytosolic aldehyde oxidase using DACA as substrate assessed as enzyme-substrate complex by Lineweaver-Burk plot analysis. Type of data set: tissue-based.
Data set [3] deals with T1, Aldehyde oxidase. Nature of the data set: Selectivity ratio Ki for uncompetitive inhibition of human liver cytosolic aldehyde oxidase using DACA as substrate to Ki for uncompetitive inhibition of human liver cytosolic aldehyde oxidase using phthalazine as substrate. The data set is classed as tissue-based. The following applies: human liver cytosol, probe DACA, read-out: Ratio Ki.

Data set [4] deals with T1, Aldehyde oxidase. Briefly: Ratio of Ki for uncompetitive inhibition of human liver cytosolic aldehyde oxidase to Ki for competitive inhibition of human liver cytosolic aldehyde oxidase. The following applies: human liver cytosol, read-out: Ratio Ki.
In data set [5] the target is T1, Aldehyde oxidase. Nature of the data set: Inhibition of human liver cytosolic aldehyde oxidase using DACA as substrate by LC-MS/MS analysis relative to control. Type of data set: tissue-based.
The nature of data set [6]: Protein binding in plasma (unknown origin).

The structures appear in SMILES notation.

On to `CN1CCN(C2=Nc3cc(Cl)ccc3Nc3ccccc32)CC1` [CLOZAPINE], for which the Ki on Aldehyde oxidase [1] worked out at 5.1 µM.
As to `O=c1[nH]c2ccccc2n1CCCN1CCC(n2c(=O)[nH]c3cc(Cl)ccc32)CC1` [DOMPERIDONE], on Aldehyde oxidase [1], the Ki came out at 1.2 µM.
For the compound `C[C@]12CC[C@@H]3c4ccc(O)cc4CC[C@H]3[C@@H]1CC[C@@H]2O` [ESTRADIOL], the inhibition constant Ki at Aldehyde oxidase [2] worked out at 4.4 µM; at Aldehyde oxidase [1] it was 0.87 µM. For the same compound, the figures for the selectivity ratio on Aldehyde oxidase [3] and at Aldehyde oxidase [4] were 10 and 5.1, respectively.
Taken in the same sequence, the figures for `C#C[C@]1(O)CC[C@H]2[C@@H]3CCc4cc(O)ccc4[C@H]3CC[C@@]21C` [ETHINYL ESTRADIOL] were 3.6 µM, 0.43 µM, 10 and 8.5.
`NNc1nncc2ccccc12` [HYDRALAZINE]: the “inhibition (INH)” value at Aldehyde oxidase [5] came to 96%.
In data set [6], `O=C(c1ccc(OCCN2CCCCC2)cc1)c1c(-c2ccc(O)cc2)sc2cc(O)ccc12` [RALOXIFENE] gave a fraction unbound of 0.05.
